# Reference: patent publication US20240067657A1, “AMIDO-SUBSTITUTED PYRIDYL COMPOUNDS AND METHODS OF USE THEREOF FOR THE TREATMENT OF HERPESVIRUSES” (Merck Sharp & Dohme LLC, priority 2020, published 2024)
# Read-outs that look alike come from different tables or passages of the source.
# Columns and labels:
# [1] = system: HCMV Strain AD169 in MRC-5 cells; assay: Viral qPCR assay HCMV (V0/V1, V2/V3), EC50; assay type: cell-based; conditions: read-out: HCMV Cell (EC50)
# Procedure, shortened: (§1)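 Infected cells added to compounds (10-point 3-fold series), ~72 h at 37 °C, then lysed; viral genomes by TaqMan qPCR against plasmid standard, normalized to PPIA in V0/V1 only, EC50 from 4-parameter fit. HCMV AD169, 0.05-0.1 pfu/cell, ± 50% FBS; VZV 0.04-0.1 pfu/cell; HSV-1 F 0.0005-0.004 pfu/cell.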
# [2] = system: VZV in MeWo or MRC5 cells; assay: Viral qPCR assay VZV (V0/V1, V2/V3), EC50; assay type: cell-based; conditions: 10%
# Procedure, shortened: as §1
# [3] = target: T1, Human cytomegalovirus DNA polymerase (Human cytomegalovirus, UniProt P08546); assay: HCMV polymerase assay (AlphaLISA, IC50); assay type: biochemical; conditions: polymerase assay of Example 190
# T1 construct: made in house; host or cells: SF21 insect cells (baculovirus vector)
# Procedure, shortened: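 Baculovirus-expressed polymerase (HCMV 0.2 nM, VZV 0.4 nM final) preincubated 30 min at room temperature with compound in pH 7.5 HEPES buffer; reaction started with 1.6 nM DIG-primer/template and nM dNTPs including biotin-dUTP, run 60 min at 37° C. Incorporation detected by AlphaLISA; IC50 from 4-parameter fit.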
# [4] = system: HSV-1 Strain F in Vero or MRC5 cells; assay: Viral qPCR assay HSV-1 (V0/V1, V2/V3), EC50; assay type: cell-based; conditions: 10%
# Procedure, shortened: as §1
# [5] = target: T2, varicella zoster virus DNA polymerase (Varicella-zoster virus, UniProt P09252); assay: VZV polymerase assay (AlphaLISA, IC50); assay type: biochemical; conditions: polymerase assay of Example 190
# T2 construct: made in house; host or cells: SF21 insect cells (baculovirus vector)
# Method: Human cytomegalovirus and varicella zoster virus DNA polymerases were expressed via baculovirus vector in SF21 cells and purified. Heterodimeric nucleic acid substrate used in the herpesvirus polymerase reactions was generated by annealing a 59-mer template to a 17-mer digoxigenin-labeled primer. Polymerase (HCMV final concentration of 0.2 nM; VZV final concentration of 0.4 nM) was combined with an inhibitor compound or DMSO in assay buffer (10 mM HEPES, pH 7.5, 25 mM KCl, 25 mM NaCl, 5 mM MgCl2, 5% glycerol, 0.67 mg/ml bovine serum albuminutes, and 1 mM tris(2-carboxyethyl)phosphine), and this mixture was pre-incubated for 30 minutes at room temperature in 384-well microtiter plates. The polymerization reaction was initiated by the addition of template/primer substrate (final concentration: 1.6 nM), and dNTPs (final concentration: 24 nM dCTP, 24 nMdGTP, 16 nM dATP, 16 nM dTTP, and 0.8 nM biotin-dUTP). After 60 minutes incubation at 37° C., reactions were terminated with quench buffer (25 mM HEPES pH 7.5, 100 mM NaCl, 0.25% Tween-20, 12 mM EDTA, and 1 mg/ml bovine serum albumin). Incorporation of biotinylated UTP was detected with 2.5-5 ug/ml anti-DIG AlphaLISA acceptor beads and 5-10 ug/ml streptavidin AlphaLISA donor beads (Perkin Elmer). Compound effects were normalized to the window defined by the controls (DMSO only and pre-quenched wells), and were fit using a 4-parameter algorithm to report an IC50.
# [6] = Human betaherpesvirus 5, AD169, MRC5, viral qPCR assay of Example 191
# [7] = Human alphaherpesvirus 3, MeWo, MEWO cells, read-out: VZV Cell (EC50) MEWO 10%
# [8] = Human alphaherpesvirus 1, Vero, VERO cells, read-out: HSV1 Cell (EC50) VERO 10%
# [9] = MRC5 cells, read-out: VZV Cell (EC50) MRC5 10%
# [10] = MRC5 cells, read-out: HSV1 Cell (EC50) MRC5 10%
# [11] = viral qPCR assay of Example 191
# [12] = VERO cells, read-out: HSV1 Cell (EC50) VERO 10%
# [13] = Human alphaherpesvirus 3, MRC5, MRC5 cells, read-out: VZV Cell (EC50) MRC5 10%
# [14] = Human alphaherpesvirus 1, MRC5, MRC5 cells, read-out: HSV1 Cell (EC50) MRC5 10%
# T2 sequence (P09252 whole entry): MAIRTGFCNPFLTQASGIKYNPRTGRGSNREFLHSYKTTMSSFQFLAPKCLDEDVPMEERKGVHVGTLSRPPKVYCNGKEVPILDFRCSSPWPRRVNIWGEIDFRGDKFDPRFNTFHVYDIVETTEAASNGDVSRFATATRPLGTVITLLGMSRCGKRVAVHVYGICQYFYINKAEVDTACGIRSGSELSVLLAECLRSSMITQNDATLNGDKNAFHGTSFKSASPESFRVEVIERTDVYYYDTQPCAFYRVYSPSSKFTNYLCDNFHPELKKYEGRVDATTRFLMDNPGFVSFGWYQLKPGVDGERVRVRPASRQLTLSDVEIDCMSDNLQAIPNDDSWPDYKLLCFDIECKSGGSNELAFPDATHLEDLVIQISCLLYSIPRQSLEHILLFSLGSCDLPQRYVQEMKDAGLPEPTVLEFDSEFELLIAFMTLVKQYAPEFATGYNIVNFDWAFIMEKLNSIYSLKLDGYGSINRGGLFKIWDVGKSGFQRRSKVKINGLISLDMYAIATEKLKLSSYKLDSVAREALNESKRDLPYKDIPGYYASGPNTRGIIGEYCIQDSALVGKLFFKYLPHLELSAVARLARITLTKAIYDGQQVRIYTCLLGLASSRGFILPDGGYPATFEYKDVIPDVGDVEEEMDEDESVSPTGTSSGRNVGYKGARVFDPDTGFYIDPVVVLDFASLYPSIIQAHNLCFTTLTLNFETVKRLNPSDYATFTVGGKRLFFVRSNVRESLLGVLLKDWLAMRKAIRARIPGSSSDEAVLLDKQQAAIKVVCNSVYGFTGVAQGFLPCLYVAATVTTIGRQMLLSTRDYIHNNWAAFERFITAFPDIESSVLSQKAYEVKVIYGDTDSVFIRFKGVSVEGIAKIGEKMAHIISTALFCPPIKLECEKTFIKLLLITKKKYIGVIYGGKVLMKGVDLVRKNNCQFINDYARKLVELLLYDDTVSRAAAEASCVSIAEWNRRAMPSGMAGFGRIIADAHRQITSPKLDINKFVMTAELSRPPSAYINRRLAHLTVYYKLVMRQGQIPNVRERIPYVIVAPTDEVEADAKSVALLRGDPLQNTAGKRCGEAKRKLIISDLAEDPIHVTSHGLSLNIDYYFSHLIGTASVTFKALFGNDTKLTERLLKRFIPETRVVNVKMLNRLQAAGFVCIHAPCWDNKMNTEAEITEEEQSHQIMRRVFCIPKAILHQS
# T1 sequence (P08546 whole entry): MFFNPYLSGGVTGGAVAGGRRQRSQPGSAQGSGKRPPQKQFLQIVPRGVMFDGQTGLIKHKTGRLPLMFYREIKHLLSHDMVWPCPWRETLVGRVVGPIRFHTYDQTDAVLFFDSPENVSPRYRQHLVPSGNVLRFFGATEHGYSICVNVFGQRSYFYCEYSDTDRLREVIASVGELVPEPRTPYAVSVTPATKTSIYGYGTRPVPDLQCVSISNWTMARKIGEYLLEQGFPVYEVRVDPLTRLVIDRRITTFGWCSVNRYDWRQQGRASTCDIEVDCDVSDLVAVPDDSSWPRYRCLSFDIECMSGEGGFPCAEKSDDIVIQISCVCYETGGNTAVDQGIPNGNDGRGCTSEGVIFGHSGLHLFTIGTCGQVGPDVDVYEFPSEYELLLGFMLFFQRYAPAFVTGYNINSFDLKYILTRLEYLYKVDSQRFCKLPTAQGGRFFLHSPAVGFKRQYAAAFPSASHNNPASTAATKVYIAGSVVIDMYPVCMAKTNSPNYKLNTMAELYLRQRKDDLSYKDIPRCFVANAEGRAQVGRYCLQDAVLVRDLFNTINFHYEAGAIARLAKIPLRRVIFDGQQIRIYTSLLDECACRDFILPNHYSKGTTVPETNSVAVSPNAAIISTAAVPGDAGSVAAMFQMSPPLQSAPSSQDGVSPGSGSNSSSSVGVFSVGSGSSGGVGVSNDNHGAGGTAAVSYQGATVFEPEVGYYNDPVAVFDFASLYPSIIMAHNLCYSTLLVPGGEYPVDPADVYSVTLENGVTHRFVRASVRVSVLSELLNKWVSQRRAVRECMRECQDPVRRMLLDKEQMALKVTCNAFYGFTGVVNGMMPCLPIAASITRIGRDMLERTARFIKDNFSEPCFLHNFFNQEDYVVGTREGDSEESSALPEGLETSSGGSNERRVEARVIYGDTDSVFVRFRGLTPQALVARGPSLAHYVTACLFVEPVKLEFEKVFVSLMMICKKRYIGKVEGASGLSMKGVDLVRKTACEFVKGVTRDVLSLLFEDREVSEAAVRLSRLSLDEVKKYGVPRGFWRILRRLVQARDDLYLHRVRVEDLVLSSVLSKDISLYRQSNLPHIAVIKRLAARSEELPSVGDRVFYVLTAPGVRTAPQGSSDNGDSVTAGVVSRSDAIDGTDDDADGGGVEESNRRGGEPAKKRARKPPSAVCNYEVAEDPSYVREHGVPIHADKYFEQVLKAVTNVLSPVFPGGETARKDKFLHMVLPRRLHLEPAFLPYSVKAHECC
IC50 [3] [nM],IC50 [5] [nM],SMILES,"EC50 [1, 6] [nM]","EC50 [2, 7] [nM]","EC50 [4, 8] [nM]","EC50 [2, 9] [nM]","EC50 [4, 10] [nM]","EC50 [1, 11] [nM]","EC50 [4, 12] [nM]","EC50 [2, 13] [nM]","EC50 [4, 14] [nM]"
203,105,O=C(NCc1ccc(Cl)cc1)c1cc(O[C@H]2CCN3C(=O)NC[C@@H]3C2)c(-c2cnn(C(F)F)c2)cn1 (racemic) [Compound 163],2730,588,762,–,–,–,–,–,–
178,87.4,Cn1cc(-c2cnc(C(=O)NCc3ccc(Cl)cc3)cc2O[C@H]2CCN3C(=O)CC[C@H]3C2)cn1 (racemic) [Compound 170],736,599,266,–,–,–,–,–,–
219,87.7,Cn1cc(-c2cnc(C(=O)NCc3ccc(Cl)cc3)cc2O[C@H]2CCN3C(=O)NC[C@H]3C2)cn1 (racemic) [Compound 171],1090,883,1950,–,–,–,–,–,–
22.7,10.5,"CC(C)(O)C1CCN(c2cnc(C(=O)NCc3ccc(Cl)cc3)cc2O[C@H]2CCN3C(=O)OC[C@@H]3C2)C1 (single isomer, unassigned) [Compound 117-1]",360,–,–,844,566,–,–,–,–
12.1,3.05,"CC(C)(O)C1CCN(c2cnc(C(=O)NCc3ccc(Cl)cc3)cc2O[C@H]2CCN3C(=O)OC[C@@H]3C2)C1 (single isomer, unassigned) [Compound 117-2]",–,–,–,9100,4780,211,–,–,–
40.3,24.9,"O=C(NCc1ccc(Cl)cc1)c1cc(O[C@H]2CCN3C(=O)OC[C@@H]3C2)c(C2CC2CO)cn1 (single isomer, unassigned) [Compound 156-1]",–,–,–,2630,–,1280,3500,–,–
8.03,4.96,"O=C(NCc1ccc(Cl)cc1)c1cc(O[C@H]2CCN3C(=O)OC[C@@H]3C2)c(C2CC2CO)cn1 (single isomer, unassigned) [Compound 156-2]",–,–,–,1180,–,600,738,–,–
130,47.3,"O=C(NCc1ccc(Cl)cc1)c1cc(O[C@H]2CCN3C(=O)CCC[C@@H]3C2)c(-c2cnn(C(F)F)c2)cn1 (single isomer, unassigned) [Compound 161-1]",1330,210,461,–,–,–,–,–,–
3.08,2.42,"O=C(NCc1ccc(Cl)cc1)c1cc(O[C@H]2CCN3C(=O)OCC[C@@H]3C2)c(-c2cnn(C(F)F)c2)cn1 (single isomer, unassigned) [Compound 162-1]",88.6,61.1,77,–,–,–,–,447,107
10.3,7.39,O=C(NCc1ccc(Cl)cc1)c1cc(O[C@H]2CCN3C(=O)OC[C@@H]3C2)c(-c2cnn(C(F)F)c2)cn1 [Compound 3],180,112,70.9,–,–,–,–,170,127
79,30.8,CC(=O)N1CCC(Oc2cc(C(=O)NCc3ccc(Cl)cc3)ncc2-c2cnn(C)c2)CC1 [Compound 6],342,84.5,144,–,–,–,–,–,–
26.2,33.3,O=C(NCc1ccc(Cl)cc1F)c1cc(O[C@H]2CCN3C(=O)OC[C@@H]3C2)c(-c2cnn(C(F)F)c2)cn1 [Compound 8],440,368,259,–,–,–,–,–,–
43.9,40.9,O=C(NCc1ccc(Cl)cc1)c1cc(O[C@H]2CCN3C(=O)OC[C@@H]3C2)c(-c2ccn(CC(F)(F)F)n2)cn1 [Compound 14],563,234,319,–,–,–,–,–,–
29.2,19.9,CC(C)n1ccc(-c2cnc(C(=O)NCc3ccc(Cl)cc3)cc2O[C@H]2CCN3C(=O)OC[C@@H]3C2)n1 [Compound 15],176,159,160,–,–,–,–,–,–
23.1,21,O=C(NCc1ccc(Cl)cc1)c1cc(O[C@H]2CCN3C(=O)OC[C@@H]3C2)c(-c2cnn(CC(F)(F)F)c2)cn1 [Compound 17],380,368,426,–,–,–,–,–,–
15.7,10.5,O=C(NCc1ccc(Cl)cc1)c1cc(O[C@H]2CCN3C(=O)OC[C@@H]3C2)c(-c2cc[nH]n2)cn1 [Compound 18],120,392,836,–,–,–,–,126,194
17.4,9.12,O=C(NCc1ccc(Cl)cc1)c1cc(O[C@H]2CCN3C(=O)OC[C@@H]3C2)c(-c2cnn(C3CC3)c2)cn1 [Compound 19],214,105,316,–,–,–,–,–,–
16.4,12.8,O=C(NCc1ccc(Cl)cc1)c1cc(O[C@H]2CCN3C(=O)OC[C@@H]3C2)c(-c2cnn3c2COCC3)cn1 [Compound 20],132,–,–,–,–,–,–,343,235
15.6,13.9,CC(C)n1cc(-c2cnc(C(=O)NCc3ccc(Cl)cc3)cc2O[C@H]2CCN3C(=O)OC[C@@H]3C2)cn1 [Compound 21],282,205,206,–,–,–,–,–,–
0.222,1.12,O=C(NCc1ccc(Cl)cc1)c1cc(O[C@H]2CCN3C(=O)OC[C@@H]3C2)c(-c2cnc(CO)s2)cn1 [Compound 22],68.8,–,224,–,–,–,–,109,150
1.6,≤ 0.444,O=C(NCc1ccc(Cl)cc1)c1cc(O[C@H]2CCN3C(=O)OC[C@@H]3C2)c(-c2cnco2)cn1 [Compound 24],98.7,–,–,–,–,–,–,121,56.4
13.9,13.9,O=C(NCc1ccc(Cl)cc1)c1cc(O[C@H]2CCN3C(=O)OC[C@@H]3C2)c(-c2ccn(C(F)F)n2)cn1 [Compound 26],280,–,119,–,–,–,–,4590,≥ 80200
14.1,12.5,O=C(NCc1ccc(Cl)cc1)c1cc(O[C@H]2CCN3C(=O)OC[C@@H]3C2)c(-c2cnn(CC(F)F)c2)cn1 [Compound 27],138,248,300,–,–,–,–,–,–
14.7,12.7,COCCn1ccc(-c2cnc(C(=O)NCc3ccc(Cl)cc3)cc2O[C@H]2CCN3C(=O)OC[C@@H]3C2)n1 [Compound 28],325,422,327,–,–,–,–,–,–
9.24,7.85,Cn1cc(-c2cnc(C(=O)NCc3ccc(Cl)cc3)cc2O[C@H]2CCN3C(=O)OC[C@@H]3C2)cn1 [Compound 29],107,51.6,184,–,–,–,–,109,102
9.86,16.3,Cn1ccc(-c2cnc(C(=O)NCc3ccc(Cl)cc3)cc2O[C@H]2CCN3C(=O)OC[C@@H]3C2)n1 [Compound 30],116,82,132,–,–,–,–,121,78.2
8.59,6.54,COCCn1cc(-c2cnc(C(=O)NCc3ccc(Cl)cc3)cc2O[C@H]2CCN3C(=O)OC[C@@H]3C2)cn1 [Compound 31],116,111,309,–,–,–,–,260,224
